Tests used:
[1] = molecular target: T1, androgen receptor (Homo sapiens, UniProt P10275); assay: Assay for binding affinity to androgen receptor ([3H]methyltrienolone radioligand, cell cytosol); conditions: 1 nM [3H]methyltrienolone, 24 hours at 4° C., Table 5
T1 sequence (P10275 1-920 T878A): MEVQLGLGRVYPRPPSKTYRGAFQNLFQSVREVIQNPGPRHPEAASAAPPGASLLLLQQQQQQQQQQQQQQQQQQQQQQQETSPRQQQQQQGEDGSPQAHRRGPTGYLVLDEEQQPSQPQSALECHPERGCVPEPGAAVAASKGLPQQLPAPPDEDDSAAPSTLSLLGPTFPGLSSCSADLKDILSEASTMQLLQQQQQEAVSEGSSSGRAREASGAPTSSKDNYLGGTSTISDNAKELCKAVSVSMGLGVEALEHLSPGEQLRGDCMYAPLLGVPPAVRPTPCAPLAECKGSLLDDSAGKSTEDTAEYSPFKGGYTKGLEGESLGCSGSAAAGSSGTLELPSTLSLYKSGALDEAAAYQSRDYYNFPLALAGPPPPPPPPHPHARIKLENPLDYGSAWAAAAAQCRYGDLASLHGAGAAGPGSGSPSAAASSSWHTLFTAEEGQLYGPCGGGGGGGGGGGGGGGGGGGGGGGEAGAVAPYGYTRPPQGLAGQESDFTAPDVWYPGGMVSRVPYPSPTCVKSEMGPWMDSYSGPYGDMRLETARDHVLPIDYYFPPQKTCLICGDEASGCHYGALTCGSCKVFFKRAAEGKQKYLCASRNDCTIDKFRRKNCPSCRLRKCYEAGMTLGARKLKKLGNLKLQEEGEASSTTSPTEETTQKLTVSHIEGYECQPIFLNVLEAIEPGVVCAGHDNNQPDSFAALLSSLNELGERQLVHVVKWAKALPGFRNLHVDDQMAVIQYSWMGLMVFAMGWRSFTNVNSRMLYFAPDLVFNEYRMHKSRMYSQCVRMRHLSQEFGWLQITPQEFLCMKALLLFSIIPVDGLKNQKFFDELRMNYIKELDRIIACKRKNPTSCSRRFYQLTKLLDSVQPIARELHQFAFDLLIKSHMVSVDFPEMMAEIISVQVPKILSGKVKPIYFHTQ
Outline: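 Competition binding in cell cytosol ([…]) with 1 nM [3H]methyltrienolone, 24 hours at 4° C, in pH 7.4 Hepes-Tris buffer with 5 μM triamcinolone acetonide; nonspecific binding defined by 1 μM testosterone. Filtration and scintillation counting; values reported as % inhibition of specific binding.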

[2] = tested on: VCaP cells; assay: Cellular growth inhibition assay for VCaP cells, CellTiter-Glo; type: cell-based, human; conditions: 72 hours treatment, CellTiter-Glo 2.0
Outline: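 GI50 values come from four-parameter curve fits of luminescence data normalized to a zero baseline. Compound, in medium with 0.5% DMSO, was added one day after plating and left for 72 h before CellTiter-Glo 2.0 addition.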

| SMILES | Kd [1] | GI50 ([2]; Homo sapiens, VCaP, 72 h) | GI50 [2] |
| --- | --- | --- | --- |
| CCNC(=O)C[C@@H]1N=C(c2cccc(OCCOCCOCCOC3CCN(c4ncc(C(=O)N[C@H]5C(C)(C)[C@H](Oc6ccc(C#N)c(Cl)c6)C5(C)C)cn4)CC3)c2)c2c(sc(C)c2C)-n2c(C)nnc21 [Compound I-48, N-((1r,3r)-3-(3-chloro-4-cyanophenoxy)-2,2,4,4-tetramethylcyclobutyl)-2-(4-(2-(2-(2-(3-((S)-6-(2-(ethylamino)-2-oxoethyl)-2,3,9-trimethyl-6H-thieno[3,2-f][1,2,4]triazolo[4,3-a][1,4]diazepin-4-yl)phenoxy)ethoxy)ethoxy)ethoxy)piperidin-1-yl)pyrimidine-5-carboxamide] | < 50 nM | < 500 nM | – |
| CCNC(=O)C[C@@H]1N=C(c2ccc(OCC3CN(c4ncc(C(=O)N[C@H]5C(C)(C)[C@H](Oc6ccc(C#N)c(Cl)c6)C5(C)C)cn4)C3)cc2)c2c(sc(C)c2C)-n2c(C)nnc21 [Compound I-71] | < 50 nM | < 500 nM | – |
| CCNC(=O)C[C@@H]1N=C(c2ccc(OCCCN(C)c3ncc(C(=O)N[C@H]4C(C)(C)[C@H](Oc5ccc(C#N)c(Cl)c5)C4(C)C)cn3)cc2)c2c(sc(C)c2C)-n2c(C)nnc21 [Compound I-81] | < 50 nM | < 500 nM | – |
| CCNC(=O)C[C@@H]1N=C(c2ccc(OCCCC#Cc3ncc(C(=O)N[C@H]4C(C)(C)[C@H](Oc5ccc(C#N)c(Cl)c5)C4(C)C)cn3)cc2)c2c(sc(C)c2C)-n2c(C)nnc21 [Compound I-83] | < 50 nM | 500 to 1500 nM | – |
| CCNC(=O)C[C@@H]1N=C(c2ccc(OCCCCc3ncc(C(=O)N[C@H]4C(C)(C)[C@H](Oc5ccc(C#N)c(Cl)c5)C4(C)C)cn3)cc2)c2c(sc(C)c2C)-n2c(C)nnc21 [Compound I-86] | < 50 nM | 500 to 1500 nM | – |
| CCNC(=O)C[C@@H]1N=C(c2ccc(N3CCN(CC4CCN(c5ncc(C(=O)N[C@H]6C(C)(C)[C@H](Oc7ccc(C#N)c(Cl)c7)C6(C)C)cn5)CC4)CC3)cc2)c2c(sc(C)c2C)-n2c(C)nnc21 [Compound I-105, N-[3-(3-chloro-4-cyano-phenoxy)-2,2,4,4-tetramethyl-cyclobutyl]-2-[4-[[4-[4-[(9S)-9-[2-(ethylamino)-2-oxo-ethyl]-4,5,13-trimethyl-3-thia-1,8,11,12-tetrazatricyclo[8.3.0.02,6]trideca-2(6),4,7,10,12-pentaen-7-yl]phenyl]piperazin-1-yl]methyl]-1-piperidyl]pyrimidine-5-carboxamide] | < 50 nM | < 500 nM | – |
| CCNC(=O)C[C@@H]1N=C(c2ccc(N3CCC(OC4CCN(c5ncc(C(=O)N[C@H]6C(C)(C)[C@H](Oc7ccc(C#N)c(Cl)c7)C6(C)C)cn5)CC4)CC3)cc2)c2c(sc(C)c2C)-n2c(C)nnc21 [Compound I-114] | < 50 nM | < 500 nM | – |
| CCNC(=O)C[C@@H]1N=C(c2ccc(N3CC(N(C)C4CN(c5ncc(C(=O)N[C@H]6C(C)(C)[C@H](Oc7ccc(C#N)c(Cl)c7)C6(C)C)cn5)C4)C3)cc2)c2c(sc(C)c2C)-n2c(C)nnc21 [Compound I-121] | < 50 nM | < 500 nM | – |
| CCNC(=O)C[C@@H]1N=C(c2ccc(N3CCC(N(C)C4CN(c5ncc(C(=O)N[C@H]6C(C)(C)[C@H](Oc7ccc(C#N)c(Cl)c7)C6(C)C)cn5)C4)CC3)cc2)c2c(sc(C)c2C)-n2c(C)nnc21 [Compound I-123] | < 50 nM | < 500 nM | – |
| CCNC(=O)C[C@@H]1N=C(c2ccc(N3CCC(CN4CC(Oc5ncc(C(=O)N[C@H]6C(C)(C)[C@H](Oc7ccc(C#N)c(Cl)c7)C6(C)C)cn5)C4)CC3)cc2)c2c(sc(C)c2C)-n2c(C)nnc21 [Compound I-124] | < 50 nM | 500 to 1500 nM | – |
| Cc1sc2c(c1C)C(c1ccc(N3CC(C4CCN(c5ncc(C(=O)N[C@H]6C(C)(C)[C@H](Oc7ccc(C#N)c(Cl)c7)C6(C)C)cn5)CC4)C3)cc1)=N[C@@H](C)c1nnc(C)n1-2 [Compound I-271] | < 50 nM | > 3000 nM | – |
| Cc1sc2c(c1C)C(c1ccc(OC3CC4(C3)CC3(CCN(c5ncc(C(=O)N[C@H]6C(C)(C)[C@H](Oc7ccc(C#N)c(Cl)c7)C6(C)C)cn5)CC3)C4)cc1)=N[C@@H](Cc1ncco1)c1nnc(C)n1-2 [Compound I-283] | < 50 nM | < 500 nM | – |
| Cc1sc2c(c1C)C(c1ccc(CC3CC4(CCN(c5ncc(C(=O)N[C@H]6C(C)(C)[C@H](Oc7ccc(C#N)c(Cl)c7)C6(C)C)cn5)CC4)C3)cc1)=N[C@@H](C)c1nnc(C)n1-2 [Compound I-303] | < 50 nM | – | 1500 to 3000 nM |

The next lines start with the values.

| Kd [1] | GI50 ([2]; Homo sapiens, VCaP, 72 h) | GI50 [2] | SMILES |
| --- | --- | --- | --- |
| < 50 nM | > 3000 nM | – | Cc1sc2c(c1C)C(c1ccc(OCCOC3CCN(c4ncc(C(=O)N[C@H]5C(C)(C)[C@H](Oc6ccc(C#N)c(Cl)c6)C5(C)C)cn4)CC3)cc1)=N[C@@H](CC(=O)O)c1nnc(C)n1-2 [Compound I-38] |
| < 50 nM | > 3000 nM | – | Cc1sc2c(c1C)C(c1ccc(OCCOCCOC3CCN(c4ncc(C(=O)N[C@H]5C(C)(C)[C@H](Oc6ccc(C#N)c(Cl)c6)C5(C)C)cn4)CC3)cc1)=N[C@@H](CC(=O)O)c1nnc(C)n1-2 [Compound I-39] |
| < 50 nM | > 3000 nM | – | Cc1sc2c(c1C)C(c1ccc(OCCOCCOCCOC3CCN(c4ncc(C(=O)N[C@H]5C(C)(C)[C@H](Oc6ccc(C#N)c(Cl)c6)C5(C)C)cn4)CC3)cc1)=N[C@@H](CC(=O)O)c1nnc(C)n1-2 [Compound I-40] |
| < 50 nM | > 3000 nM | – | Cc1sc2c(c1C)C(c1cccc(OCCOC3CCN(c4ncc(C(=O)N[C@H]5C(C)(C)[C@H](Oc6ccc(C#N)c(Cl)c6)C5(C)C)cn4)CC3)c1)=N[C@@H](CC(=O)O)c1nnc(C)n1-2 [Compound I-41] |
| < 50 nM | 1500 to 3000 nM | – | Cc1sc2c(c1C)C(c1cccc(OCCOCCOC3CCN(c4ncc(C(=O)N[C@H]5C(C)(C)[C@H](Oc6ccc(C#N)c(Cl)c6)C5(C)C)cn4)CC3)c1)=N[C@@H](CC(=O)O)c1nnc(C)n1-2 [Compound I-42] |
| < 50 nM | > 3000 nM | – | Cc1sc2c(c1C)C(c1cccc(OCCOCCOCCOC3CCN(c4ncc(C(=O)N[C@H]5C(C)(C)[C@H](Oc6ccc(C#N)c(Cl)c6)C5(C)C)cn4)CC3)c1)=N[C@@H](CC(=O)O)c1nnc(C)n1-2 [Compound I-43] |
| < 50 nM | < 500 nM | – | CCNC(=O)C[C@@H]1N=C(c2ccc(OCCOCCOC3CCN(c4ncc(C(=O)N[C@H]5C(C)(C)[C@H](Oc6ccc(C#N)c(Cl)c6)C5(C)C)cn4)CC3)cc2)c2c(sc(C)c2C)-n2c(C)nnc21 [Compound I-44] |
| < 50 nM | < 500 nM | – | CCNC(=O)C[C@@H]1N=C(c2ccc(OCCOCCOCCOC3CCN(c4ncc(C(=O)N[C@H]5C(C)(C)[C@H](Oc6ccc(C#N)c(Cl)c6)C5(C)C)cn4)CC3)cc2)c2c(sc(C)c2C)-n2c(C)nnc21 [Compound I-45, N-((1r,3r)-3-(3-chloro-4-cyanophenoxy)-2,2,4,4-tetramethylcyclobutyl)-2-(4-(2-(2-(2-(4-((S)-6-(2-(ethylamino)-2-oxoethyl)-2,3,9-trimethyl-6H-thieno[3,2-f][1,2,4]triazolo[4,3-a][1,4]diazepin-4-yl)phenoxy)ethoxy)ethoxy)ethoxy)piperidin-1-yl)pyrimidine-5-carboxamide] |
| < 50 nM | 500 to 1500 nM | – | CCNC(=O)C[C@@H]1N=C(c2cccc(OCCOC3CCN(c4ncc(C(=O)N[C@H]5C(C)(C)[C@H](Oc6ccc(C#N)c(Cl)c6)C5(C)C)cn4)CC3)c2)c2c(sc(C)c2C)-n2c(C)nnc21 [Compound I-46, N-((1r,3r)-3-(3-chloro-4-cyanophenoxy)-2,2,4,4-tetramethylcyclobutyl)-2-(4-(2-(3-((S)-6-(2-(ethylamino)-2-oxoethyl)-2,3,9-trimethyl-6H-thieno[3,2-f][1,2,4]triazolo[4,3-a][1,4]diazepin-4-yl)phenoxy)ethoxy)piperidin-1-yl)pyrimidine-5-carboxamide] |
| < 50 nM | 500 to 1500 nM | – | CCNC(=O)C[C@@H]1N=C(c2cccc(OCCOCCOC3CCN(c4ncc(C(=O)N[C@H]5C(C)(C)[C@H](Oc6ccc(C#N)c(Cl)c6)C5(C)C)cn4)CC3)c2)c2c(sc(C)c2C)-n2c(C)nnc21 [Compound I-47, N-((1r,3r)-3-(3-chloro-4-cyanophenoxy)-2,2,4,4-tetramethylcyclobutyl)-2-(4-(2-(2-(3-((S)-6-(2-(ethylamino)-2-oxoethyl)-2,3,9-trimethyl-6H-thieno[3,2-f][1,2,4]triazolo[4,3-a][1,4]diazepin-4-yl)phenoxy)ethoxy)ethoxy)piperidin-1-yl)pyrimidine-5-carboxamide] |

Reference: patent US20260062422A1 (Halda Therapeutics OpCo, Inc., priority 2022, published 2026)
